Tested on: cellular pERK in NCI-H1975 cells (EGFR/L858R-T790M)
Assay: pERK potency assay (In Cell ELISA)
Format: cell-based
Conditions: Homo sapiens, 1 h compound incubation
Source text: The assay measures the ability of a compound to inhibit SOS1 function in cells. SOS1 activates RAS proteins by catalyzing the conversion of RAS GDP to RAS GTP in response to receptor tyrosine kinase activation. Activation of RAS induces a sequence of cellular signaling events that result in increased phosphorylation of ERK at Threonine 202 and Tyrosine 204 (pERK). The procedure (i.e., In Cell ELISA as described below) measures the level of cellular pERK in response to a test compound in NCI-H1975 cells (EGFR/L858R-T790M).
First, NCI-H1975 cells were grown and maintained using media and procedures recommended by the ATCC. A day before compound addition, cells were plated in poly-D-lysine coated 96-well cell culture plates (Corning® BioCoat® Cat #356640) at 25000 cells/well/100 μL and grown overnight in an incubator at 37° C. with 5% CO2. A solution of a test compound was prepared with 3-fold serial dilutions in DMSO having a top concentration of 6 mM. On the day of the assay, 50 μL of a test compound dilution in media was added to each well of cell culture plate with a final compound concentration in the range of 0.001 μM to 20 μM. After addition of the compound, cells were incubated for 1 h at 37° C. with 5% CO2, after which the culture medium was removed. Cells were fixed with 4% formaldehyde in phosphate-buffered saline (PBS) and incubated at RT for 20 min. The plate was washed three times with PBST (PBS with 0.05% Tween®-20), followed by incubation with 100 μL of pre-cooled methanol at −20° C. for 20 min. After incubation, methanol was removed. The plate was again washed with PBST. Cells were then permeabilized with 100 μL/well of 0.1% Triton X-100 in PBS at RT for 20 min and then quenched with a quenching buffer (PBST containing 1% H2O2 and 0.1% sodium azide) for 20 min at RT with gentle shaking. After washing once with PBST, a blocking buffer (250 uL/well, Pierce™ Protein-Free-PBS Blocking Buffer, Cat #37572) was then added to the cells for 1-h incubation at RT, followed by an anti-pERK antibody (cell signaling, 1:1000 dilution in 5% BSA in PBST) incubation overnight at 4° C. and a secondary antibody-HRP (Jackson immunoresearch, 1:3000 dilution in 5% BSA in PBST) incubation at RT for 1 h. PBST wash was carried out after each step three times. Before the addition of a substrate (Advansta ELISABright™), the plate was washed with PBS twice to remove detergent residues. The Cellular pERK level was determined using the microplate reader (Biotek Synergy™ H1) to detect the chemiluminescence signal. IC50 was determined by fitting a 4-parameter sigmoidal concentration-response model.

**Q.** With `Cc1c([C@@H](C)/N=c2\nc3n(c4cnc(C5(C(F)F)CC5)cc24)CCC3)cccc1C(F)(F)F` [Compound 31, (R,Z)-3-(1-(difluoromethyl)cyclopropyl)-N-(1-(2-methyl-3-(trifluoromethyl)phenyl)ethyl)-8,9-dihydropyrido[4,3-e]pyrrolo[1,2-a]pyrimidin-5(7H)-imine] as the molecule, how does the IC50 read?
**A.** < 100 nM

**Q.** For `CC(=O)N1CC=C(c2cc3/c(=N/[C@H](C)c4cccc(C(F)(F)F)c4C)nc4n(c3cn2)CCO4)CC1` [Compound 32, (R,Z)-1-(4-(5-((1-(2-methyl-3-(trifluoromethyl)phenyl)ethyl)imino)-8,9-dihydro-5H-oxazolo[3,2-a]pyrido[4,3-e]pyrimidin-3-yl)-3,6-dihydropyridin-1(2H)-yl)ethan-1-one], which IC50 is on record?
**A.** < 100 nM

**Q.** How did the IC50 turn out when `CC(=O)N1CCC(F)(c2cc3/c(=N/[C@H](C)c4cccc(C(F)(F)F)c4C)nc4n(c3cn2)CCO4)CC1` [Compound 33, (R,Z)-1-(4-fluoro-4-(5-((1-(2-methyl-3-(trifluoromethyl)phenyl)ethyl)imino)-8,9-dihydro-5H-oxazolo[3,2-a]pyrido[4,3-e]pyrimidin-3-yl)piperidin-1-yl)ethan-1-one] was run?
**A.** < 100 nM

**Q.** For `CC(=O)N1CC=C(c2cc3/c(=N/[C@H](C)c4cccc(C#N)c4C)nc4n(c3cn2)CCO4)CC1` [Compound 34], which IC50 is on record?
**A.** < 100 nM

**Q.** Which IC50 does the source give for `CC(=O)N1CCC(F)(c2cc3/c(=N/[C@H](C)c4cccc(C#N)c4C)nc4n(c3cn2)CCO4)CC1` [Compound 35] here?
**A.** < 100 nM

**Q.** `Cc1c([C@@H](C)/N=c2\nc(C)n(C)c3ccc(C4=CCOCC4)cc23)cccc1C(F)(F)F` [Compound 36] was tested. Which IC50 did it give?
**A.** < 100 nM

**Q.** `CC(=O)N1CC=C(c2ccc3c(c2)/c(=N/[C@H](C)c2cccc(C(F)(F)F)c2C)nc(C)n3C)CC1` [Compound 37] was tested. Which IC50 did it give?
**A.** < 100 nM

**Q.** With `Cc1c(C#N)cccc1[C@@H](C)/N=c1\nc(C)n(C)c2ccc(C3=CCOCC3)cc12` [Compound 38] as the molecule, how does the IC50 read?
**A.** < 100 nM

**Q.** For `Cc1c([C@@H](C)/N=c2\nc(C)n(C)c3cnc(C4=CCOCC4)cc23)cccc1C(F)(F)F` [Compound 39], which IC50 is on record?
**A.** < 100 nM

**Q.** Which IC50 does the source give for `Cc1c(C#N)cccc1[C@@H](C)/N=c1\nc(C)n(C)c2cnc(C3=CCC(F)(F)CC3)cc12` [Compound 40] here?
**A.** < 100 nM

**Q.** How did the IC50 turn out when `Cc1c(C#N)cccc1[C@@H](C)/N=c1\nc(C)n(C)c2cnc(C3=CCOCC3)cc12` [Compound 41] was run?
**A.** < 100 nM

**Q.** How did the IC50 turn out when `Cc1c([C@@H](C)/N=c2\nc(C)n(C)c3cnc(C4=CCN(S(C)(=O)=O)CC4)cc23)cccc1C(F)(F)F` [Compound 42, (R,Z)-1,2-dimethyl-N-(1-(2-methyl-3-(trifluoromethyl)phenyl)ethyl)-6-(1-(methylsulfonyl)-1,2,3,6-tetrahydropyridin-4-yl)pyrido[3,4-d]pyrimidin-4(1H)-imine] was run?
**A.** < 100 nM

**Q.** With `Cc1c([C@@H](C)/N=c2\nc(C)n(C)c3cnc(C4=CCN(C(N)=O)CC4)cc23)cccc1C(F)(F)F` [Compound 43, (R,Z)-4-(1,2-dimethyl-4-((1-(2-methyl-3-(trifluoromethyl)phenyl)ethyl)imino)-1,4-dihydropyrido[3,4-d]pyrimidin-6-yl)-3,6-dihydropyridine-1(2H)-carboxamide] as the molecule, how does the IC50 read?
**A.** < 100 nM

**Q.** With `CC(=O)N1CCC(F)(c2cc3/c(=N/[C@H](C)c4cccc(C(F)(F)F)c4C)nc(C)n(C)c3cn2)C[C@H]1C` (stereo partly drawn) [Compound 45, 1-((2R)-4-((Z)-1,2-dimethyl-4-(((R)-1-(2-methyl-3-(trifluoromethyl)phenyl)ethyl)imino)-1,4-dihydropyrido[3,4-d]pyrimidin-6-yl)-4-fluoro-2-methylpiperidin-1-yl)ethan-1-one] as the molecule, how does the IC50 read?
**A.** < 100 nM

**Q.** `CC(=O)N1CCC(F)(c2cc3/c(=N/[C@H](C)c4cccc(C(F)(F)F)c4C)nc(C)n(C)c3cn2)CC1(C)C` (stereo partly drawn) [Compound 46, 1-(4-((Z)-1,2-dimethyl-4-(((R)-1-(2-methyl-3-(trifluoromethyl)phenyl)ethyl)-imino)-1,4-dihydropyrido[3,4-d]pyrimidin-6-yl)-4-fluoro-2,2-dimethylpiperidin-1-yl)ethan-1-one] was tested. Which IC50 did it give?
**A.** < 100 nM

**Q.** `Cc1c([C@@H](C)/N=c2\nc(C)n(C)c3cnc(-c4ccn5c(C(F)(F)F)ncc5c4)cc23)cccc1C(F)(F)F` [Compound 47, (R,Z)-1,2-dimethyl-N-(1-(2-methyl-3-(trifluoromethyl)phenyl)ethyl)-6-(3-(trifluoromethyl)imidazo[1,5-a]pyridin-7-yl)pyrido[3,4-d]pyrimidin-4(1H)-imine] was tested. Which IC50 did it give?
**A.** < 100 nM

**Q.** For `Cc1c([C@@H](C)/N=c2\nc(C)n(C)c3cnc(N4CCC(F)(F)CC4)cc23)cccc1C(F)(F)F` [Compound 48, (R,Z)-6-(4,4-difluoropiperidin-1-yl)-1,2-dimethyl-N-(1-(2-methyl-3-(trifluoromethyl)phenyl)ethyl)pyrido[3,4-d]pyrimidin-4(1H)-imine], which IC50 is on record?
**A.** < 100 nM

**Q.** `CC(=O)N1CCN(c2cc3/c(=N/[C@H](C)c4cccc(C(F)(F)F)c4C)nc(C)n(C)c3cn2)CC1` [Compound 49] was tested. Which IC50 did it give?
**A.** < 100 nM

**Q.** With `Cc1c([C@@H](C)/N=c2\nc(C)n(C)c3cnc(N4CCC5(CC5)C4)cc23)cccc1C(F)(F)F` [Compound 50] as the molecule, how does the IC50 read?
**A.** < 100 nM

**Q.** With `Cc1c([C@@H](C)/N=c2\nc(C)n(C)c3cnc(N4CCC5(CC4)CC5)cc23)cccc1C(F)(F)F` [Compound 51] as the molecule, how does the IC50 read?
**A.** < 100 nM

**Q.** Which IC50 does the source give for `Cc1c([C@@H](C)/N=c2\nc(C)n(C)c3cnc(N4CCO[C@H](C)C4)cc23)cccc1C(F)(F)F` [Compound 52] here?
**A.** < 100 nM

**Q.** For `CC(=O)N1CCN(c2cnc3c(c2)/c(=N/[C@H](C)c2cccc(C(F)(F)F)c2C)nc(C)n3C)CC1` [Compound 53], which IC50 is on record?
**A.** < 100 nM

**Q.** `Cc1c(C#N)cccc1[C@@H](C)/N=c1\nc(C)n(C)c2cnc(N3CCOCC3)cc12` [Compound 54, (R,Z)-3-(1-((1,2-dimethyl-6-morpholinopyrido[3,4-d]pyrimidin-4(1H)-ylidene)amino)ethyl)-2-methylbenzonitrile] was tested. Which IC50 did it give?
**A.** < 100 nM

**Q.** How did the IC50 turn out when `Cc1c([C@@H](C)/N=c2\nc(C)n(C)c3cnc(N4CCOCC4)cc23)cccc1C(F)(F)F` [Compound 55] was run?
**A.** < 100 nM

**Q.** How did the IC50 turn out when `CC(=O)N1CCN(c2cc3/c(=N/[C@H](C)c4cccc(C#N)c4C)nc(C)n(C)c3cn2)CC1` [Compound 56] was run?
**A.** < 100 nM

**Q.** For `Cc1c(C#N)cccc1[C@@H](C)/N=c1\nc(C)n(C)c2cnc(N3CCCC3)cc12` [Compound 57], which IC50 is on record?
**A.** < 100 nM

**Q.** `Cc1c(C#N)cccc1[C@@H](C)/N=c1\nc(C)n(C)c2cnc(N3CCC(F)(F)CC3)cc12` [Compound 59] was tested. Which IC50 did it give?
**A.** < 100 nM

**Q.** With `Cc1c(C#N)cccc1[C@@H](C)/N=c1\nc(C)n(C)c2cnc(N3CCC4(CC3)CC4)cc12` [Compound 60] as the molecule, how does the IC50 read?
**A.** < 100 nM

**Q.** For `Cc1c(C#N)cccc1[C@@H](C)/N=c1\nc(C)n(C)c2cnc(N3CCO[C@H](C)C3)cc12` [Compound 61], which IC50 is on record?
**A.** < 100 nM

**Q.** How did the IC50 turn out when `Cc1c([C@@H](C)/N=c2\nc(C)n(C)c3cnc(N4CCC(F)(F)C4)cc23)cccc1C(F)(F)F` [Compound 62] was run?
**A.** < 100 nM

**Q.** `Cc1c(C#N)cccc1[C@@H](C)/N=c1\nc(C)n(C)c2cnc(N3CCCCC3)cc12` [Compound 64] was tested. Which IC50 did it give?
**A.** < 100 nM

**Q.** `Cc1c(C#N)cccc1[C@@H](C)/N=c1\nc(C)n(C)c2cnc(N3CCC4(CC4)C3)cc12` [Compound 65] was tested. Which IC50 did it give?
**A.** < 100 nM

**Q.** How did the IC50 turn out when `Cc1c(C#N)cccc1[C@@H](C)/N=c1\nc(C)n(C)c2cnc(N3CCC(F)(F)C3)cc12` [Compound 66] was run?
**A.** < 100 nM

**Q.** `Cc1c(C#N)cccc1[C@@H](C)/N=c1\nc(C)n(C)c2cnc(N3CCC(C)(O)CC3)cc12` [Compound 67] was tested. Which IC50 did it give?
**A.** < 100 nM

**Q.** `CC(=O)N1CCN(c2cc3/c(=N/[C@H](C)c4cccc(C(F)(F)F)c4C)nc(C)n(C)c3cn2)C(=O)C1` [Compound 68] was tested. Which IC50 did it give?
**A.** < 100 nM

**Q.** With `Cc1c(C#N)cccc1[C@@H](C)/N=c1\nc(C)n(C)c2cnc(N3CC(F)C3)cc12` [Compound 69] as the molecule, how does the IC50 read?
**A.** < 100 nM

**Q.** `Cc1c(C#N)cccc1[C@@H](C)/N=c1\nc(C)n(C)c2cnc(N3CCC3)cc12` [Compound 71] was tested. Which IC50 did it give?
**A.** < 100 nM

**Q.** For `Cc1c(C#N)cccc1[C@@H](C)/N=c1\nc(C)n(C)c2cnc(N3CC4CC4C3)cc12` (stereo partly drawn) [Compound 72], which IC50 is on record?
**A.** < 100 nM

**Q.** Which IC50 does the source give for `Cc1c(C#N)cccc1[C@@H](C)/N=c1\nc(C)n(C)c2cnc(N3CC(C)(O)C3)cc12` [Compound 73] here?
**A.** < 100 nM

**Q.** With `Cc1c(C#N)cccc1[C@@H](C)/N=c1\nc(C)n(C)c2cnc(N3CCOC[C@H]3C)cc12` [Compound 74] as the molecule, how does the IC50 read?
**A.** < 100 nM

**Q.** With `COC1CN(c2cc3/c(=N/[C@H](C)c4cccc(C#N)c4C)nc(C)n(C)c3cn2)C1` [Compound 76] as the molecule, how does the IC50 read?
**A.** < 100 nM

**Q.** `Cc1c([C@@H](C)/N=c2\nc3n(c4cnc(N5CCOCC5)cc24)CCC3)cccc1C(F)(F)F` [Compound 77] was tested. Which IC50 did it give?
**A.** < 100 nM
